According to patent publication US12357598B2, “Treatment of neurodevelopmental disorders” (THE REGENTS OF THE UNIVERSITY OF CALIFORNIA, priority 2018, dated 2025):

System: ddY mice
Assay: Oxylipin analysis of plasma and brain regions of juvenile offspring after maternal glyphosate exposure
Type: in vivo, mouse
Details: juvenile offspring (P28), maternal 0.095% glyphosate
Text: Collection of blood and brain samples and oxylipin analysis. Water or 0.095% glyphosate was given to pregnant mice from E5 to P21, as described above. The male offspring were separated from their mothers at weaning (P21). At juvenile (P28) stage, mice were deeply anesthetized with isoflurane and plasma was collected. Subsequently, brains were removed from the skulls. For Western blot analysis, brain regions such as prefrontal cortex (PFC), hippocampus, and striatum, were dissected from brain on ice. The samples were stored at −80° C. before assay. For oxylipin analysis, plasma was collected after isoflurane anesthesia at juvenile (P28) stage. Subsequently, PFC, hippocampus, and striatum were dissected from brain on ice, and the samples were stored at −80° C. before assay. Measurement of eicosanoids in the plasma and brain regions was performed at UC Davis using the previous method (4).

O=C(O)CNCP(=O)(O)O [glyphosate]
4,5-DiHDPE level (plasma): 1.527 ± 0.112 nmol/mL | 5(6)-EpETrE level (plasma): 24.279 ± 3.524 nmol/mL | 5,6-DiHETrE level (plasma): 0.417 ± 0.047 nmol/mL | 5-HEPE level (plasma): 8.117 ± 1.251 nmol/mL | 5-HETE level (plasma): 2.137 ± 0.335 nmol/mL | 5-oxo-ETE level (plasma): 20.987 ± 2.839 nmol/mL | 6-keto-PGF1a level (plasma): 0.252 ± 0.043 nmol/mL | 7(8)-EpDPE level (plasma): 195.343 ± 16.718 nmol/mL | 8(9)-EpETE level (plasma): 0.863 ± 0.138 nmol/mL | 8(9)-EpETrE alt level (plasma): 3.325 ± 0.409 nmol/mL | 8(9)-EpETrE level (plasma): 13.892 ± 2.938 nmol/mL | 8-HEPE level (plasma): 7.652 ± 0.970 nmol/mL | 8-HETE level (plasma): 7.349 ± 0.718 nmol/mL | 9(10)-EpOME level (plasma): 28.326 ± 4.243 nmol/mL | 9,10,13-TriHOME level (plasma): 5.220 ± 0.403 nmol/mL | 9,12,13-TriHOME level (plasma): 12.758 ± 1.096 nmol/mL | 9-HETE level (plasma): 0.056 ± 0.012 nmol/mL | 9-HODE level (plasma): 17.293 ± 2.482 nmol/mL | 10(11)-EpDPE level (plasma): 13.285 ± 1.234 nmol/mL | 11(12)-EpETE level (plasma): 2.579 ± 0.284 nmol/mL | 11(12)-EpETrE level (plasma): 6.360 ± 1.002 nmol/mL | 11,12-,15-TriHETrE level (plasma): 0.300 ± 0.072 nmol/mL | 11,12-DiHETrE level (plasma): 0.394 ± 0.045 nmol/mL | 11-HETE level (plasma): 1.949 ± 0.131 nmol/mL | 12(13)-EpOME level (plasma): 38.512 ± 4.378 nmol/mL | 12-HEPE level (plasma): 92.380 ± 15.026 nmol/mL | 12-HETE level (plasma): 90.069 ± 11.494 nmol/mL | 12-oxo-ETE level (plasma): 500.173 ± 99.031 nmol/mL | 13(14)-EpDPE level (plasma): 8.177 ± 0.873 nmol/mL | 13,14-DiHDPE level (plasma): 0.530 ± 0.056 nmol/mL | 13-HODE level (plasma): 66.733 ± 9.200 nmol/mL | 14(15)-EpETE level (plasma): 2.316 ± 0.258 nmol/mL | 14(15)-EpETrE level (plasma): 4.038 ± 0.637 nmol/mL | 14,15-DiHETrE level (plasma): 0.575 ± 0.051 nmol/mL | 15(16)-EpODE level (plasma): 14.493 ± 1.929 nmol/mL | 15(S)-HETrE level (plasma): 0.743 ± 0.167 nmol/mL | 15-HETE level (plasma): 1.985 ± 0.228 nmol/mL | 15-oxo-ETE level (plasma): 0.746 ± 0.105 nmol/mL | 16(17)-EpDPE level (plasma): 7.978 ± 0.799 nmol/mL | 16,17-DiHDPE level (plasma): 1.955 ± 0.201 nmol/mL | 17(18)-EpETE level (plasma): 4.845 ± 0.480 nmol/mL | 17-HDoHE level (plasma): 1386.287 ± 316.090 nmol/mL | 19(20)-EpDPE level (plasma): 19.092 ± 1.307 nmol/mL | 19,20-DiHDPE level (plasma): 6.507 ± 0.444 nmol/mL | EKODE level (plasma): 12.405 ± 2.140 nmol/mL | LTB3 level (plasma): 2.540 ± 0.525 nmol/mL | PGD2 level (plasma): 0.138 ± 0.010 nmol/mL | PGE2 level (plasma): 0.704 ± 0.010 nmol/mL | PGF2a level (plasma): 0.462 ± 0.048 nmol/mL | TXB2 level (plasma): 0.548 ± 0.069 nmol/mL | 4,5-DiHDPE level (striatum): 1.331 ± 0.320 pmol/g | 5(6)-EpETrE level (striatum): 2286.424 ± 589.971 pmol/g | 5,6-DiHETrE level (striatum): 0.655 ± 0.058 pmol/g | 5-HEPE level (striatum): 1.966 ± 0.253 pmol/g | 5-HETE level (striatum): 21.009 ± 1.874 pmol/g | 5-oxo-ETE level (striatum): 177.806 ± 23.342 pmol/g | 6-keto-PGF1a level (striatum): 70.151 ± 4.942 pmol/g | 7(8)-EpDPE level (striatum): 3684.482 ± 1464.079 pmol/g | 8(9)-EpETE level (striatum): 2.863 ± 1.693 pmol/g | 8(9)-EpETrE alt level (striatum): 256.271 ± 63.811 pmol/g | 8(9)-EpETrE level (striatum): 7513.6 ± 2879.9 pmol/g | 8-HEPE level (striatum): 1.198 ± 0.106 pmol/g | 8-HETE level (striatum): 7.063 ± 1.134 pmol/g | 9(10)-EpOME level (striatum): 64.909 ± 24.089 pmol/g | 9,10,13-TriHOME level (striatum): 35.219 ± 5.532 pmol/g | 9,12,13-TriHOME level (striatum): 59.110 ± 9.487 pmol/g | 9-HETE level (striatum): 2.001 ± 0.403 pmol/g | 9-HODE level (striatum): 42.211 ± 2.648 pmol/g | 10(11)-EpDPE level (striatum): 283.118 ± 111.688 pmol/g | 11(12)-EpETE level (striatum): 2.950 ± 0.707 pmol/g | 11(12)-EpETrE level (striatum): 1056.655 ± 383.807 pmol/g | 11,12-,15-TriHETrE level (striatum): 28.513 ± 2.432 pmol/g | 11,12-DiHETrE level (striatum): 1.461 ± 0.114 pmol/g | 11-HETE level (striatum): 263.508 ± 14.043 pmol/g | 12(13)-EpOME level (striatum): 75.548 ± 26.478 pmol/g | 12-HEPE level (striatum): 16.777 ± 3.707 pmol/g | 12-HETE level (striatum): 402.213 ± 68.023 pmol/g | 12-oxo-ETE level (striatum): 2383.322 ± 205.470 pmol/g | 13(14)-EpDPE level (striatum): 196.586 ± 72.402 pmol/g | 13,14-DiHDPE level (striatum): 0.849 ± 0.088 pmol/g | 13-HODE level (striatum): 61.551 ± 3.988 pmol/g | 14(15)-EpETE level (striatum): 2.368 ± 0.640 pmol/g | 14(15)-EpETrE level (striatum): 991.031 ± 327.438 pmol/g | 14,15-DiHETrE level (striatum): 2.399 ± 0.255 pmol/g | 15(16)-EpODE level (striatum): 0.837 ± 0.335 pmol/g | 15(S)-HETrE level (striatum): 13.863 ± 0.898 pmol/g | 15-HETE level (striatum): 312.592 ± 16.237 pmol/g | 15-oxo-ETE level (striatum): 15.203 ± 3.961 pmol/g | 16(17)-EpDPE level (striatum): 186.178 ± 73.985 pmol/g | 16,17-DiHDPE level (striatum): 1.427 ± 0.114 pmol/g | 17(18)-EpETE level (striatum): 7.282 ± 2.840 pmol/g | 17-HDoHE level (striatum): 7832.089 ± 1004.299 pmol/g | 19(20)-EpDPE level (striatum): 373.365 ± 128.458 pmol/g | 19,20-DiHDPE level (striatum): 8.734 ± 0.672 pmol/g | EKODE level (striatum): 14.223 ± 1.256 pmol/g | LTB3 level (striatum): 74.130 ± 28.033 pmol/g | PGD2 level (striatum): 404.389 ± 30.557 pmol/g | PGE2 level (striatum): 61.254 ± 3.057 pmol/g | PGF2a level (striatum): 367.138 ± 24.248 pmol/g | TXB2 level (striatum): 219.314 ± 15.121 pmol/g
